Reference: US9670223B2, “Compounds with super-aspirin effects” (SOLVOTRIN THERAPEUTICS LTD., priority 2011, dated 2017)
Read-outs that look alike come from different tables or passages of the source.

Assays:
[1] = test system: platelet esterases (pNPA hydrolysis in WP); format: biochemical, human; details: for effect on NPA/PNA activity of WP or lysed platelets: 10-100 μM
Protocol: WP, PRP, PPP or lysed WP and 50 mM TrisHCl pH7.4 were incubated on a 96 well plate at 37° C. for 30 min. PNA at a final concentration of 3 mM was added to the plate and the change in absorbance at 405 nm was measured over a period of 10 min.
NPA hydrolyse activity could be due to CE (EC 3.1.1.1), BuChE, acetylcholinesterase (AChE, EC 3.1.1.7) or paraoxanase/arylesterase (PON, EC 3.1.8.1). To identify which esterases were involved in the hydrolysis of PNA, various inhibitors were incubated with the WP, PRP, PPP or lysed WP and 50 mM TrisHCl pH7.4 for 30 min at 37° C. prior to the addition of the PNA and the measurement of the change in absorbance at 405 nm. Physostigmine (100 μM), a cholinesterase inhibitor was used to check if BuChE/AChE played a role in the hydrolysis of PNA. […] PMSF (10-100 μM) was used to determine if serine proteases played any part in the hydrolysis of PNA by platelets. EDTA a calcium chelator was used to investigate the role played by PON esterases. BNPP a CE inhibitor of was used to investigate if carboxylesterases played a role in hydrolysis of PNA by platelets.

[2] = test system: platelet rich plasma (PRP); test: Collagen-induced platelet aggregation in platelet rich plasma (light aggregometry); format: cell-based, human; details: for inhibition of collagen induced aggregation by hydrolysis products: 10-300 μM in PRP, collagen 5 μg/ml
Protocol: (§1) PRP and WP (2.5×10^8 platelets ml^−1) were prepared from blood. Briefly 36 ml whole blood was collected into 4 ml of 3.15% sodium citrate; this was centrifuged at 250 ¥g for 20 min (with gentle acceleration and deceleration). At this point PRP, which had separated from white blood cells and red blood cells, was gently removed. When WP were required this PRP was centrifuged at 700 g for 10 min (with gentle acceleration and deceleration) in the presence of prostacyclin. The platelet-poor plasma (PPP) was removed and the platelet pellet was washed three times with Tyrode's buffer, before being re-suspended in Tyrode's buffer to a concentration of 2.5 ¥108 platelets/ml.
(§2) Platelet aggregation was measured by light aggregometry. […] Aggregation was initiated by the addition of agonists, and monitored by Aggro-Link software for at least 6 min.
(§3) To study the aggregatory potency of ADP, the concentration-response (0.3-10 μM) curves were generated. Collagen at different concentrations (2-5 μg/ml) was also used to induce platelet aggregation. Submaximal concentrations of agonists, i.e. the concentrations that gave approximately 95% of the maximal aggregation were used to study the effects of inhibitors of aggregation. Aspirin and aspirin prodrugs was incubated for various intervals prior to the addition of aggregating agents.
(§4) Eserine (in DMSO, 10 μM, giving a final concentration≦0.25% DMSO, which pilot studies had determined not to affect platelet aggregation) was preincubated with PRP or WP for 5 min in the aggregometer with stirring at 900 r.p.m. before the addition of test compounds (ST0701-05), which were incubated in PRP or WP for a further 10 min prior to the addition of an agonist (10 μM ADP or 5 μg/ml Collagen) to induce platelet aggregation.

TxB2 = TxB2 suppression after single oral gavage dose; format: in vivo, cynomolgus monkey; details: for TxB2 suppression (TxB2 levels as percentage of baseline), in words: Phase 2A, single oral gavage, ST0702 9.6 mg/kg, aspirin 4.2 mg/kg, 1 and 24 hours post dosing; for TxB2 suppression, % complete: Phase 2B, at 24 hours
[3] = Plasma pharmacokinetics of aspirin and metabolites after single oral gavage dose; format: in vivo, cynomolgus monkey
Protocol: The objectives of this study are to determine the comparative clinical efficacy as determined by TxB2 suppression with single oral gavage dose administration of Aspirin, ST0702 and ST0702 Micronised to the cynomolgus monkey. Aspirin pharmacokinetics were compared using Area Under the Curve (AUC) calculations.
The objectives of this study are to determine the comparative pharmacokinetics of ST0702 at 9.6 and 4.8 mg/Kg with single oral gavage dose administration to the cynomolgus monkey and to determine dose-response effects.
Although the half life of the Isosorbide 2 salicylate 5 nicotinate metabolite is very short in-vitro, we investigated the serum taken from Cynomologus Monkeys participating in Study 2B above. The comparative pharmacokinetics of Isosorbide 2 salicylate 5 nicotinate from Monkeys receiving a single oral gavage dose of micronized ST0702 at 9.6 and 4.8 mg/Kg were evaluated. The concentrations of the breakdown products of ISANA were quantified using LCMS methods.
Animals are acclimated to the oral gavage procedure for at least 3 days prior to the commencement of dose formulation administration. Deionized water is administered by oral gavage using a disposable catheter attached to a plastic syringe at a dose volume of 5 mL/kg. Animals are treated at approximately the same time on each dosing day. Dose formulations are administered by oral gavage using a disposable catheter attached to a plastic syringe. Following each daily dose, the gavage tube is rinsed with 6 mL of Ultra Pure water into the animal's stomach. Each animal will be dosed with a clean gavage tube on each dosing occasion. The dosing volume is 10 mL/kg. Each actual volume administered will be based on the most recent practical body weight of each animal. The dose formulations will be stirred continuously during dose administration.
Samples are mixed gently and placed on crushed wet ice until centrifugation, which are carried out as soon as practical. The samples are centrifuged for approximately 10 minutes in a refrigerated centrifuge (approximately 4° C.) at 2700 rpm. The resultant plasma are separated, transferred to uniquely labeled clear polypropylene tubes, and frozen immediately over dry ice and transferred to a freezer set to maintain −80° C. The plasma samples are transferred to the bioanalytical laboratory at the Testing Facility.
Plasma samples are analyzed for concentration of Aspirin, Salicylic Acid and Nicotinic Acid using a qualified analytical procedure. Analysis are performed by LC MS/MS under Analytical Procedure. Data collection is performed using Analyst from AB Sciex. […]

[4] = test system: platelet rich plasma (PRP); test: ADP-induced platelet aggregation in PRP; format: cell-based, human; details: ODQ 10 μM, ADP 10 μM, PRP
Protocol: as §1, §2, §3, §4
1H-[1,2,4]Oxadiazolo[4,3-a]quinoxalin-1-one (ODQ, dissolved in 100% DMSO, used at a final concentration of 10 μM, which gave a final concentration not more than 0.25% DMSO) was preincubated with PRP or WP for 5 min in the aggregometer with stirring at 900 r.p.m. before the addition of test compounds (ST0701-05), which were incubated in PRP or WP for a further 10 min prior to the addition of an agonist (10 μM ADP or 5 μg/ml collagen) to induce platelet aggregation.
Eserine (10 μM) was incubated with PRP for 5 min in the aggregometer with stirring at 900 r.p.m. before the addition of test compound ST0702 salicylate (500 μM), which was incubated in PRP for a further 10 min prior to the addition of the agonist ADP (10 μM) to induce platelet aggregation.

washed platelets (WP) = test: Collagen-induced platelet aggregation in washed platelets (light aggregometry); format: cell-based, human; details: WP, collagen 2 μg/ml, PMSF up to 100 μM
Protocol: as §1, §2, §3
To study the involvement of plasma BuChE in the activation of ST0701, purified BuChE (3 U/ml) was incubated with WP for 5 min in the aggregometer with stirring at 900 r.p.m. before the addition of the test compounds ST0701 which was incubated with the WP for a further 10 min, prior to the addition of collagen (5 ug/ml).
as §4
Phenylmethylsulphonylfluoride (PMSF) 20, 50 and 100 μM dissolved in EtOH (<0.2% EtOH, which pilot studies had determined not to affect platelet aggregation) was preincubated in WP in the aggregometer for 5 min with stirring at 900 r.p.m. before the addition of test compound ST0702 to the WP, which was further incubated for 10 min prior to the addition of collagen (2 μg/ml) to induce platelet aggregation.

59M cells [5] = test: Flow-mediated TCIPA using an ultrasound standing wave trap; format: cell-based, human; details: 500 μM, 59M cell cluster
Source text: The ultrasound trap had three essential features: a transducer (Ferroperm, Kvistgard, Denmark) in a housing of radial symmetry, an aqueous phase and a reflector that provided optical access from above. The trap was driven with a function generator (Hewlett Packard 33120A, UK). Microscopic observation occurred with a fast, high-resolution XM10 camera (Soft Imaging System, SIS, GmbH) mounted on an Olympus BX51M reflection epi-fluorescence microscope. Images were captured by a standard PC equipped with the Cell-D image acquisition software (Soft Imaging System, SIS, GmbH).
The experimental procedure was as follows: 59M cells were introduced into the trap, the acoustic field (2.13 MHz, 0.85 MPa) was initiated and cell clusters were allowed to form. Clusters remained levitated in suspension for 10 min. Washed platelets (2.5×10^8/ml) were introduced into the trap at a flow rate of 3 μl/min. Perfusion of washed platelets around the cluster proceeded following initial adhesion of platelets to the periphery of the cluster.
To study the effect of aspirin and aspirin prodrugs in TCIPA, washed platelets were pre-incubated for 10 min at room temperature with the inhibitors: aspirin, nicotinate, ISAS, ISMNA, ortho and meta (all at a concentration of 500 μM), prior to their introduction into the ultrasound trap. […] The cell cluster-platelet aggregate remained under microscopic observation for further 10 min (the upper time limit established in the current study) under continuous flow conditions. Further experiments were performed with ST0702 salicylate (500 μM).

59M cells [6] = test: Tumour cell-induced platelet aggregation (TCIPA), static conditions, 59M; format: cell-based, human; details: static, WP, 300 and 500 μM, 59M 1×10^3/ml
Source text: ISAS meanwhile is hydrolysed to aspirin and salicylic acid. […] The structure of platelet-tumor cell aggregates was studied using phase-contrast microscopy (Alonso-Escolano et al., 2004; Jurasz et al., 2001). […] Aliquots of each sample were then taken for phase-contrast microscopy examination using an Olympus CKX41 microscope (Olympus America Inc., […].). Photomicrographs were captured using a digital camera and MicroFire (Olympus America Inc.) software (Alonso-Escolano et al., 2004; Jurasz et al., 2001).

P-selectin = test: Flow cytometry of platelet P-selectin during TCIPA induced by 59M cells; format: cell-based, human; details: 300 μM

O=[N+]([O-])c1ccc(OP(=O)(O)Oc2ccc([N+](=O)[O-])cc2)cc1 [BNPP, bis-p-nitrophylphosphate]
effect on NPA/PNA activity of WP or lysed platelets [1]: no significant effect

O=C(O)CN(CCN(CC(=O)O)CC(=O)O)CC(=O)O [EDTA, ethylenediaminetetraacetic acid]
effect on NPA activity of WP [1]: no effect

CC(C)NP(=O)(NC(C)C)OP(=O)(NC(C)C)NC(C)C [Iso-OMPA, tetraisopropylpyrophosphoramide]
effect on NPA/PNA activity of WP or lysed platelets [1]: no effect

O[C@@H]1CO[C@H]2[C@@H]1OC[C@@H]2O [Isosorbide]
inhibition of collagen induced aggregation by hydrolysis products [2]: None of the hydrolysis products significantly inhibited aggregation

CC(=O)Oc1ccccc1C(=O)OC1COC2C(OC(=O)c3cccnc3)COC12 (stereo not shown) [Micronized ST0702, isosorbide-2-aspirinate-5-nicotinate]
TxB2 suppression (TxB2 levels as percentage of baseline), in words (TxB2): no difference between aspirin and micronized ST0702 | TxB2 suppression (TxB2 levels as percentage of baseline), in words (TxB2; listed as micronised ISANA): as effective as equimolar doses of aspirin | TxB2 suppression, % complete (TxB2; 4.8 mg/Kg oral): 47% | TxB2 suppression, % complete (TxB2; 9.6 mg/Kg oral): 70% | % of aspirin AUC ([3]; Phase 2B, Micronised ST0702 equimolar dose vs aspirin 4.2 mg/Kg): 62% | expected aspirin delivered in-vivo ([3]; Studies 2A and 2B together, relative to equivalent aspirin): 58-62%

O=c1onc2cnc3ccccc3n12 [ODQ, 1H-[1,2,4]oxadiazolo[4,3-a]quinoxalin-1-one, reference compound]
inhibition of ADP induced aggregation when incubated alone [4]: some inhibition

O=S(=O)(F)Cc1ccccc1 [PMSF, phenylmethylsulphonyl fluoride]
inhibition of NPA activity in WP ([1]; at 10 μM): 50% | inhibition of NPA activity in WP ([1]; at 100 μM): almost completely inhibited | effect of PMSF alone on collagen-induced aggregation (washed platelets (WP)): no significant effect

O=C(O[C@H]1CO[C@H]2[C@@H]1OC[C@H]2OC(=O)c1ccccc1O)c1ccccc1O [isosorbide-2,5-disalicylate]
inhibition of collagen induced aggregation by hydrolysis products [2]: None of the hydrolysis products significantly inhibited aggregation | attenuation of aspirin's inhibitory effect on co-incubation ([2]; co-incubated with aspirin, 50-500 μM, non-significant trend): ≤ 10%

O=C(O[C@@H]1CO[C@H]2[C@H]1OC[C@@H]2O)c1ccccc1O [isosorbide-5-salicylate]
inhibition of collagen induced aggregation by hydrolysis products [2]: None of the hydrolysis products significantly inhibited aggregation

CC(=O)Oc1ccccc1C(=O)O[C@H]1CO[C@H]2[C@@H]1OC[C@H]2OC(=O)c1cccc(CO[N+](=O)[O-])c1 [metanitrate]
inhibition of TCIPA under flow conditions (platelet-tumour cell disruption) (59M cells [5]): did not interfere | inhibition of TCIPA induced by 59M (59M cells [6]): inhibited | inhibition of TCIPA induced by 59M (59M cells [6]; listed as Meta): able to inhibit | 59M-mediated increase in platelet surface P-selectin (P-selectin): significantly (P<0.05, n=4) reduce

O=C(O)c1ccccc1O [salicylic acid]
inhibition of collagen induced aggregation by hydrolysis products [2]: None of the hydrolysis products significantly inhibited aggregation
